Measured values published in patent US9765075B2, “Substituted bridged urea analogs as sirtuin modulators” (GLAXOSMITHKLINE LLC, priority 2013, dated 2017).
Positions count from the first letter of the chain named.

How the values were obtained:
Assay in all cases: SIRT1 activation dose-response, OAcADPr assay with Ac-p53(W5) substrate
Type in all cases: biochemical
[1] = target: T1, full-length hSIRT1 Q222A (Homo sapiens, UniProt Q96EB6, Q222A); details: for EC50: hSIRT1 Q222A, activation dose-response, Ac-p53(W5) substrate
T1 construct: The following point mutants of full-length hSIRT1 were generated; made in house
T1 sequence (Q96EB6 1-747 Q222A): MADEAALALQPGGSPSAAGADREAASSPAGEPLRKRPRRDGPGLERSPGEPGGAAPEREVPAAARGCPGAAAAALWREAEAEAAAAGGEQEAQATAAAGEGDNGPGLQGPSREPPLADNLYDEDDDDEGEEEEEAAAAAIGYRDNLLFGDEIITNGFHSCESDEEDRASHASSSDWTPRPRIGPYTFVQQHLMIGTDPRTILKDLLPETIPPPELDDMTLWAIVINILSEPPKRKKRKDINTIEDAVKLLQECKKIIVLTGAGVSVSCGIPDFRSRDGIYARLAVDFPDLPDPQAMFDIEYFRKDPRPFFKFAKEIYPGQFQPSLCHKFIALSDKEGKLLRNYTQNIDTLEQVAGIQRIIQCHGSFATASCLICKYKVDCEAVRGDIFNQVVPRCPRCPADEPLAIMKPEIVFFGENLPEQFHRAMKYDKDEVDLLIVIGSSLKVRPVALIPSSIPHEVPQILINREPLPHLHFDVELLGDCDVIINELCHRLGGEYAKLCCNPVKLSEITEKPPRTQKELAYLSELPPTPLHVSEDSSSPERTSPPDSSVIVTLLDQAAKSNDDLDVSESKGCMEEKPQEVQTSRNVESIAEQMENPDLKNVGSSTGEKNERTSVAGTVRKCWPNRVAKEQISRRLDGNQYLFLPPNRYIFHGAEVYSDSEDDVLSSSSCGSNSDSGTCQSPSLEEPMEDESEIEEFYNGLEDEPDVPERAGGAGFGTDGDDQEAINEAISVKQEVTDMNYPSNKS
Experimental: (§1) SIRT1 activation and inhibition assays were run in reaction buffer with 0.05% BSA at 25° C. and analyzed using the OAcADPr assay. Enzyme and compound were pre-incubated for 20 minutes before addition of substrates. […] The dose-dependence of five compounds was tested and the fold-activation data were described by Eq. 1
(§2) [formula] where vx/v0 is the ratio of the reaction rate in the presence (vx) versus absence (v0) of activator (X), RVmax is the relative velocity at infinite activator concentration, EC50 is the concentration of activator required to produce one-half RVmax and b is the minimum value of vx/v0.

[2] = target: T2, full-length hSIRT1 E230A (Homo sapiens, UniProt Q96EB6, E230A); details: for EC50: hSIRT1 E230A, activation dose-response, Ac-p53(W5) substrate
T2 construct: His6 (C); made in house
T2 sequence (Q96EB6 1-747 E230A): T1 sequence (Q96EB6 1-747 Q222A) with A222Q, E230A
Experimental: as §1, §2

[3] = target: T3, full-length hSIRT1 T219A (Homo sapiens, UniProt Q96EB6, T219A); details: for EC50: hSIRT1 T219A, activation dose-response, Ac-p53(W5) substrate
T3 construct: The following point mutants of full-length hSIRT1 were generated; His6 (C); made in house
T3 sequence (Q96EB6 1-747 T219A): T1 sequence (Q96EB6 1-747 Q222A) with T219A, A222Q
Experimental: as §1, §2

| SMILES | EC50 fold shift (mutant EC50/wild-type EC50) [1] | RVmax fold shift = (wild-type RVmax−1)/(mutant RVmax−1) [1] | EC50 [1] [nM] | EC50 fold shift (mutant EC50/wild-type EC50) [2] | RVmax fold shift = (wild-type RVmax−1)/(mutant RVmax−1) [2] | EC50 [2] [nM] | EC50 fold shift (mutant EC50/wild-type EC50) [3] | RVmax fold shift = (wild-type RVmax−1)/(mutant RVmax−1) [3] | EC50 [3] [nM] |
| --- | --- | --- | --- | --- | --- | --- | --- | --- | --- |
| O=C(Nc1ccccn1)N1c2nc(-c3cccc(C(F)(F)F)c3)ccc2N2CC[C@H]1C2 [Example 7] | 0.91 | 0.98 | 2010 | 1.19 | 3.58 | 2610 | 4.01 | 2.73 | 8830 |
| Cc1cnc2c(NC(=O)N3c4nc(-c5cccc(C(F)(F)F)c5)ccc4N4CC[C@H]3C4)cccc2n1 [Example 8] | 1.07 | 1.22 | 510 | 1.11 | 2.39 | 530 | 8.26 | 1.64 | 3960 |
